Test results published in patent publication US11339193B2, “CDP protein secretion inhibitors” (KEZAR LIFE SCIENCES, priority 2018, dated 2022).
Like-named read-outs stand apart in the source and are kept apart here. Peptide text beside a SMILES is read from it.

How the values were obtained:
Type in all cases: cell-based
[1] = tested on: Prl-ss+10aa/Gaussia Luciferase; test: Prl-ss-Gluc assay (constitutively active or 24 hr Dox inducible); conditions: Flp-In 293 T-REx cells, 24 hours; read-out: Prl IC50
Procedure, shortened: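 Stable Flp-In 293 T-REx lines express Prl signal sequence+10aa fused to Gaussia luciferase, either constitutively (pcDNA5/FRT) or under the T-REx promoter (pcDNA5/FRT/TO). Cells plated the day before; compounds in DMSO/media (with doxycycline for the inducible line, 24 h) incubated at 37 °C, 5% CO2.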

[2] = tested on: VCAMss+10aa/Gaussia Luciferase; test: VCAM-ss-Gluc assay (constitutively active or Dox induced); conditions: Flp-In 293 T-REx cells, 24 hours
Procedure, shortened: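 Stable cell lines secreting a VCAM signal sequence+10aa/Gaussia luciferase fusion, expressed either constitutively or under T-REx doxycycline control. Cells plated the day before; compound dilutions in DMSO/media (with doxycycline for the induced line) added and incubated at 37° C, 5% CO2.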

[3] = tested on: JJN3 plasma cell leukemia cell line; test: JJN-3 assay (Alamar blue); conditions: Homo sapiens, 72 h
Procedure, shortened: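 For both lines, 5000 cells/well were exposed to compound or a 1% DMSO-medium control for 72 h unless otherwise specified. Signal was normalized to the DMSO control.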

[4] = tested on: FLT3ss-Gluc; test: FLT3ss assay
Description: The mature domain of secreted luciferase from Gaussia princeps (GLuc) was cloned into pcDNA5/FRT/TO. The signal sequence plus four amino acids of the mature domain from FLT3 ([…]) (SEQ ID NO:7) were cloned upstream of GLuc mature domain and used in transient transfection experiment.
HEK-293T T-rex cells were cultured in Dulbecco's modified Eagle's medium with 10% FBS at 5% CO2. Cells were plated 1×10e6 cells per well in a 6-well plate and incubated for 6 h. Cells were transiently transfected with FLT3ss-Gluc using Lipofectamine 2000 (Invitrogen). After overnight incubation, transfected cells were replated in a clear-bottomed, black 96-well plate at a density of 20,000 cells per well. Six hours after plating, the cells were treated with doxycycline (1 μg/ml) and increasing concentrations of the indicated compounds for 24 h. Secreted luciferase in the conditioned media was quantified by luminescence using the BioLux Gaussia Luciferase Assay Kit (New England Biolabs, Ipswich, Mass., USA) and a SpectraMax M5 plate reader (Molecular Devices).

| IC50 ([4]; HEK-293T T-rex cells, transient transfection, doxycycline, 24 h; read-out: FLT3ss IC50) [nM] | Structure (SMILES) | IC50 [1] [µM] | IC50 [2] [nM] | EC50 [3] [nM] | IC50 ([4]; read-out: FLT3ss IC50; HEK-293T T-rex cells, transient transfection, doxycycline, 24 h) [nM] |
| --- | --- | --- | --- | --- | --- |
| – | C#CC[C@H]1OC(=O)[C@H](C)N(C)C(C)[C@H](C[C@H](C)CCCC)NC(=O)[C@H](Cc2ccccc2)N(C)C(=O)[C@H](CC(C)C)NC(=O)[C@H](CC(C)C)N(C)C(=O)[C@H](C[C@H](C)CCCC)NC1=O (some centres unmarked) [C-01] | 11.6 | 15 | 222 | 52 |
| 32 | CC(C)C[C@@H]1NC(=O)[C@H](Cc2cn(Cc3ccccc3)c3ccccc23)N(C)C(=O)[C@H](CC(C)C)NC(=O)[C@H](CC(C)C)N(C)C(=O)[C@H](CC(C)C)NC(=O)[C@@H](CCC#N)OC(=O)[C@H](C)N(C)C1=O [C-16] (HELM PEPTIDE1{L.[meA].[N#CCC[C@@H](O[*:1])C(=O)[*:2]].L.[meL].L.[CN([C@@H](Cc1cn(Cc2ccccc2)c2ccccc12)C(=O)[*:2])[*:1]]}$PEPTIDE1,PEPTIDE1,1:R1-7:R2$$$V2.0) | 1.82 | 82 | 245 | – |
